Patent US11840528B2 (Hoffmann-La Roche Inc., priority 2018, dated 2023)

Experiments:
h-GABA-A α5β3γ2 [1] = target: T1, h-GABA-A α5β3γ2 (Homo sapiens, UniProt P18507+P31644); assay: [3H]flumazenil competition binding assay, membranes of HEK293 cells expressing GABAA receptors
In short: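 Receptor source: human α5β3γ2 transiently transfected into HEK293 cells, membranes in pH 7.5 Krebs-tris. Filtration through GF/C, then scintillation counting.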

h-GABA-A α5β3γ2 [2] = target: T1, h-GABA-A α5β3γ2; assay: Two-electrode voltage clamp electrophysiology in Xenopus laevis oocytes expressing GABAA receptors, modulation of GABA EC20 current; assay type: cell-based; set-up: host or cells: Xenopus laevis oocytes micro-injected with RNA transcripts of the subunits
In short: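 Modulation is reported as % of the GABA EC20 current, calculated as 100*(Fold increase−1) from the peak ratio between a second GABA response carrying compound (applied at roughly 30-fold Ki) and a preceding control response. Oocytes expressing human α5β3γ2 were clamped at −80 mV at room temperature, 3–5 days after injection.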

[3] = displacement of [3H]-Flumazenil 0.5 nM, HEK293 cells expressing human receptors, mean of two determinations, Table 1
[4] = % modulation of GABA EC20 = 100*(Fold increase-1), Table 1
[5] = test compound at approx. 30 fold its Ki, GABA at EC20, Table 1
[6] = reference compounds, % modulation of GABA EC20, Table 2

Row | Compound | Ki (h-GABA-A α5β3γ2 [1]; [3]) | Efficacy (GABA) % (h-GABA-A α5β3γ2 [2]; [4]) | Fold increase h-GABA-A α5β3γ2 oocyte (h-GABA-A α5β3γ2 [2]; [5]) | Ki (h-GABA-A α5β3γ2 [1]; reference compounds, Table 2) | Efficacy (GABA) % (h-GABA-A α5β3γ2 [2]; [6]) | Fold increase h-GABA-A α5β3γ2 oocyte (h-GABA-A α5β3γ2 [2]; reference compounds, Table 2)
1 | Cc1onc(-c2ccc(Cl)nc2)c1Cn1ncc(N2CCC3(CCCCO3)CC2)cc1=O [Example 333, 2-[[3-(6-chloro-3-pyridyl)-5-methyl-isoxazol-4-yl]methyl]-5-(1-oxa-9-azaspiro[5.5]undecan-9-yl)pyridazin-3-one] | 41.4 nM | 190% | 2.9 |  |  | 
2 | Cc1onc(-c2ccc(C(F)(F)F)nn2)c1Cn1ncc(N2CC3(CC[C@@H](F)CO3)C2)cc1=O [Example 334, (R)-5-(7-fluoro-5-oxa-2-azaspiro[3.5]nonan-2-yl)-2-((5-methyl-3-(6-(trifluoromethyl)pyridazin-3-yl)isoxazol-4-yl)methyl)pyridazin-3(2H)-one] | 5.9 nM | 105% | 2.05 |  |  | 
3 | Cc1onc(-c2ccc(C(F)(F)F)nn2)c1Cn1ncc(N2CC3(CCCCO3)C2)cc1=O [Example 335, 2-((5-methyl-3-(6-(trifluoromethyl)pyridazin-3-yl)isoxazol-4-yl)methyl)-5-(5-oxa-2-azaspiro[3.5]nonan-2-yl)pyridazin-3(2H)-one] | 9.2 nM | 90% | 1.9 |  |  | 
4 | Cc1onc(-c2ccccc2)c1COc1ccc(N2CCCC2)nn1 [RO-035, reference compound] |  |  |  | 10.5 nM | −35% | 0.65
5 | Cc1onc(-c2ccccc2)c1COc1ccc(N2CCOCC2)nn1 [RO-036, reference compound] |  |  |  | 9.45 nM | −28% | 0.72
6 | Cc1cc(C)n(-c2ccc(OCc3c(-c4ccccc4)noc3C)nn2)n1 [RO-039, reference compound] |  |  |  | 5.15 nM | −17% | 0.83
7 | Cc1onc(-c2ccccc2)c1COc1ccc(C(=O)N2CCOCC2)nn1 [RO-096, reference compound] |  |  |  | 26 nM | −16% | 0.84
